Assay results from ChEMBL document CHEMBL3751821, “The semi-synthesis of novel andrographolide analogues and anti-influenza virus activity evaluation of their derivatives” (Bioorg Med Chem Lett, 2016).
In brackets after ≈: the same amount, converted by molar mass.

Assays:
Influenza A virus H3N2 = test: Antiviral activity against Influenza A virus H3N2 A3/JINGKE/30/95 infected in MDCK cells assessed as inhibition of virus-induced cytopathic effect after 72 hrs; format: functional, organism-based
[1] = (§1) Cytotoxicity against MDCK cells after 72 hrs by MTT assay; format: cell-based, Canis lupus familiaris; conditions: dog, MDCK cells; read-out: TC50
MDCK = test: as §1; format: cell-based, Canis lupus familiaris; conditions: dog, mdck, 72 h
[2] = Therapeutic index, ratio of TC50 for MDCK cells to IC50 for Influenza A virus H3N2 A3/JINGKE/30/95; format: cell-based; conditions: dog, read-out: TI
[3] = Influenza A virus, A3/JINGKE/30/95, MDCK, 72 h, read-out: IC50

Compound | IC50 (Influenza A virus H3N2; mdck) | CC50 at 72 h [1] [µg/mL] | IC50 (Influenza A virus H3N2; [3]) [µg/mL] | TC50 (MDCK) | selectivity ratio [2]
C[C@@]1(CO)[C@H](O)CC[C@@]2(C)C(CCC3=CCOC3=O)=C(Cn3ccc(=O)[nH]c3=O)CC[C@H]12 | Not Active | > 200 |  |  | 
C[C@@]1(CO)[C@H](O)CC[C@@]2(C)C(CCC3=CCOC3=O)=C(CNC34CC5CC(CC(C5)C3)C4)CC[C@H]12 | Not Active | > 200 |  |  | 
C[C@]1(CO)[C@H]2CC=C(Cn3ccc(=O)[nH]c3=O)[C@@H](CCC3=CCOC3=O)[C@]2(C)CC[C@H]1O |  |  | 192 (≈ 431 µM) | Non-toxic | 
C[C@]1(CO)[C@H]2CC=C(Cn3ccnc3)[C@@H](CCC3=CCOC3=O)[C@]2(C)CC[C@H]1O |  | 212 (≈ 529 µM) | 201 (≈ 502 µM) |  | 1.05
C[C@]1(CO)[C@H]2CC=C(Cn3cnc4ncnc(N)c43)[C@@H](CCC3=CCOC3=O)[C@]2(C)CC[C@H]1O |  | 524 (≈ 1120 µM) | 192 (≈ 411 µM) |  | 2.72
C[C@]1(CO)[C@H]2CC=C(Cn3cccn3)[C@@H](CCC3=CCOC3=O)[C@]2(C)CC[C@H]1O | Not Active | 122 (≈ 305 µM) |  |  | 
C[C@]1(CO)[C@H]2CC=C(Cn3cncn3)[C@@H](CCC3=CCOC3=O)[C@]2(C)CC[C@H]1O | Not Active |  |  | Non-toxic | 
C[C@@]1(CO)[C@H](O)CC[C@@]2(C)C(CCC3=CCOC3=O)=C(CN3CCOCC3)CC[C@H]12 | Not Active | > 200 |  |  | 
C[C@]1(CO)[C@H]2CC=C(Cn3ccc(N)nc3=O)[C@@H](CCC3=CCOC3=O)[C@]2(C)CC[C@H]1O |  | 491 (≈ 1110 µM) | 186 (≈ 419 µM) |  | 2.64
C[C@]1(CO)[C@H]2CC=C(CN3CCOCC3)[C@@H](CCC3=CCOC3=O)[C@]2(C)CC[C@H]1O | Not Active |  |  | Non-toxic | 
C[C@]1(CO)[C@H]2CC=C(CNCc3ccccc3)[C@@H](CCC3=CCOC3=O)[C@]2(C)CC[C@H]1O |  | 965 (≈ 2190 µM) | 122 (≈ 277 µM) |  | 7.91
Cc1cn(CC2=C(CCC3=CCOC3=O)[C@]3(C)CC[C@@H](O)[C@@](C)(CO)[C@H]3CC2)c(=O)[nH]c1=O | Not Active | > 200 |  |  | 
C[C@@]1(CO)[C@H](O)CC[C@@]2(C)C(CCC3=CCOC3=O)=C(Cn3cncn3)CC[C@H]12 | Not Active | > 200 |  |  | 
Cc1cn(CC2=CC[C@@H]3[C@](C)(CO)[C@H](O)CC[C@@]3(C)[C@@H]2CCC2=CCOC2=O)c(=O)[nH]c1=O |  |  | 201 (≈ 438 µM) | Non-toxic | 
C[C@]1(CO)[C@H]2CC=C(CNC34CC5CC(CC(C5)C3)C4)[C@@H](CCC3=CCOC3=O)[C@]2(C)CC[C@H]1O |  | 2380 (≈ 4910 µM) | 161 (≈ 332 µM) |  | 14.8
C[C@@]1(CO)[C@H](O)CC[C@@]2(C)C(CCC3=CCOC3=O)=C(Cn3ccnc3)CC[C@H]12 | Not Active | > 200 |  |  | 
C[C@@]1(CO)[C@H](O)CC[C@@]2(C)C(CCC3=CCOC3=O)=C(CNCc3ccccc3)CC[C@H]12 | Not Active | > 200 |  |  | 
C[C@@]1(CO)[C@H](O)CC[C@@]2(C)C(CCC3=CCOC3=O)=C(Cn3ccc(N)nc3=O)CC[C@H]12 | Not Active | > 200 |  |  | 
C=C1CC[C@@H]2[C@](C)(CO)[C@H](O)CC[C@@]2(C)[C@@H]1CC(C1=CCOC1=O)S(=O)(=O)[O-].[Na+] (some centres not stated) |  | 2280 | 176 |  | 12.9
C[C@@]12CC[C@@H](O)[C@@](C)(CO)C1CCC(CO)=C2CCC1=CCOC1=O (single isomer, unassigned) | Not Active | 124 (≈ 355 µM) |  |  | 
C[C@]1(CO)C2CC=C(CO)[C@@H](CCC3=CCOC3=O)[C@]2(C)CC[C@H]1O (single isomer, unassigned) |  | 678 (≈ 1940 µM) | 197 (≈ 562 µM) |  | 3.44
NC(=O)c1ncn([C@@H]2O[C@H](CO)[C@@H](O)[C@H]2O)n1 [RIBAVIRIN] |  | 3280 (≈ 13400 µM) | 87.7 (≈ 359 µM) |  | 37.4
